Data set [1] can be described thus: Mouse pharmacokinetic study, intravenous dosing. Format: in vivo. The note with it: male, C57BL/6, mouse, iv, plasma, 10 mg/kg i.v., read-out: Parent compound concentration following intravenous administration. The method, boiled down:
(§1)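 Oral arm: 100 mg/kg gavage in 5% DMSO with 0.5% HPMC/0.1% Tween 80, blood from 5 min to 24 h. Intravenous arm: 10 mg/kg tail-vein injection in 10% DMSO with HP-β-CD, blood from 3 min to 8 h. Male C57BL/6 mice; LC-MS/MS on plasma.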

Data set [2] can be described thus: Mouse pharmacokinetic study, oral administration. Format: in vivo. The note with it: male, C57BL/6, mouse, plasma, po, 100 mg/kg, plasma, male C57BL/6 mice, oral gavage 100 mg/kg. The method, boiled down:
as §1

Data set [3] concerns IL-6 cytokine output from THP-1s. Description: THP-1 AlphaLISA IL-6 cytokine assay. It is filed as cell-based, human. Particulars: Homo sapiens; PMA-differentiated THP-1 cells, LPS 24 hr then Nigericin 1 hour. The method, boiled down:
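Percent inhibition, normalised to plus- and minus-LPS controls, was plotted against concentration to derive IC50. Differentiated THP-1 cells received compound 30 min ahead of LPS (24 h) and a 1 h nigericin pulse; AlphaLISA quantified supernatant cytokine.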
In general terms: Alpha assays give light when donor and acceptor beads are brought close together.

For another data set, the system named is hepatocytes. In words: Hepatocyte stability assay (mouse). It is filed as in vitro ADME. Particulars: 10 μM compound, 0.5×10^6 cells/mL, 60 minutes. The method, boiled down:
(§2)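 Cryopreserved hepatocytes (viability >70%), 0.5×10^6 cells/mL in Leibovitz buffer, incubated at 37 °C with 10 μM compound (0.1% DMSO), duplicates; buffer-only incubations as negative control. Samples at 0-60 min quenched in acetonitrile, parent measured by LC-MS/MS; half-life and Clint (μL min^−1 10^−6 cells) from ln % remaining versus time slope.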

Data set [4] can be described thus: Hepatocyte stability assay (mouse). It is filed as in vitro ADME. The note with it: cryopreserved hepatocytes, 10 μM compound, 0.5×10^6 cells/mL, 60 minutes, read-out: T½. The method, boiled down: as §2

The term IC50 denotes the concentration at which inhibition is half-maximal. Take `C=C(CC(=O)OC1CC2(CCC2)C1)C(=O)OCC(=O)O` [Example 96, 2-((2-methylene-4-oxo-4-(spiro[3.3]heptan-2-yloxy)butanoyl)oxy)acetic acid]: the concentration at 0.05 h in data set [1] (time 0.05 h) is 15100 ng/mL. Further, the concentration at 0.133 h in data set [1] (time 0.133 h) is 3590 ng/mL. For the same compound, the concentration at 0.25 h is 659 ng/mL in data set [1] (time 0.25 h) and 4770 ng/mL in data set [2] (0.25 h, read-out: Parent compound concentrations following oral administration, Time 0.25 h). Besides, the concentration at 0.5 h is 169 ng/mL in data set [1] (time 0.5 h) and 3780 ng/mL in data set [2] (0.5 h, read-out: Parent compound concentrations following oral administration, Time 0.5 h). The concentration at 1 h in data set [1] (time 1 h) is 6.4 ng/mL; in data set [2] (1 h, read-out: Parent compound concentrations following oral administration, Time 1 h) it was 1550 ng/mL. Besides, the concentration at 2 h was 3 ng/mL in data set [1] (time 2 h) and 810 ng/mL in data set [2] (2 h, read-out: Parent compound concentrations following oral administration, Time 2 h). Moreover, the concentration at 4 h in data set [1] (time 4 h) is under 0.8 ng/mL; in data set [2] (4 h, read-out: Parent compound concentrations following oral administration, Time 4 h), 856 ng/mL. In addition, the concentration at 6 h in data set [1] (time 6 h) was under 0.8 ng/mL; in data set [2] (6 h, read-out: Parent compound concentrations following oral administration, Time 6 h) it was 330 ng/mL. Also, the concentration at 8 h in data set [1] (time 8 h) was under 0.8 ng/mL; in data set [2] (8 h, read-out: Parent compound concentrations following oral administration, Time 8 h) it was 443 ng/mL. In data set [2] (0.083 h, read-out: Parent compound concentrations following oral administration, Time 0.083 h), the concentration at 0.083 h worked out at 15300 ng/mL. The concentration at 24 h in data set [2] (24 h, read-out: Parent compound concentrations following oral administration, Time 24 h) is under 0.8 ng/mL. In data set [3], this compound registered a 50% inhibitory concentration (IC50) of 47.1 µM. Also, the “CIint (μL min^−1 10^−6 cells)” value in the data set on hepatocytes is 112 μL min^−1 10^−6 cells. For the same compound, the half-life at 10 μM in data set [4] is 12 min.

Source of the values: patent US12390437B2, “Itaconic acid derivatives and uses thereof intreating an inflammatory disease or a disease associated with an undesirable immune response” (Sitryx Therapeutics Limited, priority 2019, dated 2025).
